From patent publication US10670605B2, “Cysteine reactive probes and uses thereof” (The Scripps Research Institute, priority 2015, dated 2020)

Experiments:
Experiment in all cases: Competitive isoTOP-ABPP in situ (fragment-treated cells)
Assay type in all cases: cell-based
[1] = target: T1, cysteines in MDA-MB-231 and Ramos cells (Homo sapiens, UniProt O14879)
T1 sequence (O14879 1-490): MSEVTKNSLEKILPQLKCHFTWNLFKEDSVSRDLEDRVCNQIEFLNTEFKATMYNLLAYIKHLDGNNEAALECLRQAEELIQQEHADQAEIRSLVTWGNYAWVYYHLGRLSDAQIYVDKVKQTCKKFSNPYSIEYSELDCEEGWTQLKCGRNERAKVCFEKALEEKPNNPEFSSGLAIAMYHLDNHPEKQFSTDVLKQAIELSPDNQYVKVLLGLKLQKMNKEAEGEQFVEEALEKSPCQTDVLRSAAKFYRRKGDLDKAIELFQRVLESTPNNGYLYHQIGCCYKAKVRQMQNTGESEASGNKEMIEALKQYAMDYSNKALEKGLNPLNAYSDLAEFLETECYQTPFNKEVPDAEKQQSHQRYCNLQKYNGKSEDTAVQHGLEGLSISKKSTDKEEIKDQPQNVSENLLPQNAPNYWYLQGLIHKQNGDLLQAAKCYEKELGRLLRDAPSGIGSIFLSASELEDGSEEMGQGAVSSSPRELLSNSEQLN
Protocol: (§1) Fragments 4 and 11 were screened at 100 μM in situ. […] Site-specific engagement of electrophilic fragments was assessed by blockade of IA-alkyne probe labeling. […] Ratios for unique peptide entries were calculated for each experiment; overlapping peptides with the same modified cysteine (e.g. different charge states, MudPIT chromatographic steps or tryptic termini) were grouped together and the median ratio was reported as the final ratio (R). The peptide ratios reported by CIMAGE were further filtered to ensure the removal or correction of low quality ratios in each individual dataset. […] R values were calculated and individual datasets were filtered as described above (R value calculation and processing).

[2] = target: cysteines in MDA-MB-231 and Ramos cells (Homo sapiens, UniProt Q14997)
cysteines in MDA-MB-231 and Ramos cells (Homo sapiens, UniProt Q14997), sequence (Q14997 whole entry): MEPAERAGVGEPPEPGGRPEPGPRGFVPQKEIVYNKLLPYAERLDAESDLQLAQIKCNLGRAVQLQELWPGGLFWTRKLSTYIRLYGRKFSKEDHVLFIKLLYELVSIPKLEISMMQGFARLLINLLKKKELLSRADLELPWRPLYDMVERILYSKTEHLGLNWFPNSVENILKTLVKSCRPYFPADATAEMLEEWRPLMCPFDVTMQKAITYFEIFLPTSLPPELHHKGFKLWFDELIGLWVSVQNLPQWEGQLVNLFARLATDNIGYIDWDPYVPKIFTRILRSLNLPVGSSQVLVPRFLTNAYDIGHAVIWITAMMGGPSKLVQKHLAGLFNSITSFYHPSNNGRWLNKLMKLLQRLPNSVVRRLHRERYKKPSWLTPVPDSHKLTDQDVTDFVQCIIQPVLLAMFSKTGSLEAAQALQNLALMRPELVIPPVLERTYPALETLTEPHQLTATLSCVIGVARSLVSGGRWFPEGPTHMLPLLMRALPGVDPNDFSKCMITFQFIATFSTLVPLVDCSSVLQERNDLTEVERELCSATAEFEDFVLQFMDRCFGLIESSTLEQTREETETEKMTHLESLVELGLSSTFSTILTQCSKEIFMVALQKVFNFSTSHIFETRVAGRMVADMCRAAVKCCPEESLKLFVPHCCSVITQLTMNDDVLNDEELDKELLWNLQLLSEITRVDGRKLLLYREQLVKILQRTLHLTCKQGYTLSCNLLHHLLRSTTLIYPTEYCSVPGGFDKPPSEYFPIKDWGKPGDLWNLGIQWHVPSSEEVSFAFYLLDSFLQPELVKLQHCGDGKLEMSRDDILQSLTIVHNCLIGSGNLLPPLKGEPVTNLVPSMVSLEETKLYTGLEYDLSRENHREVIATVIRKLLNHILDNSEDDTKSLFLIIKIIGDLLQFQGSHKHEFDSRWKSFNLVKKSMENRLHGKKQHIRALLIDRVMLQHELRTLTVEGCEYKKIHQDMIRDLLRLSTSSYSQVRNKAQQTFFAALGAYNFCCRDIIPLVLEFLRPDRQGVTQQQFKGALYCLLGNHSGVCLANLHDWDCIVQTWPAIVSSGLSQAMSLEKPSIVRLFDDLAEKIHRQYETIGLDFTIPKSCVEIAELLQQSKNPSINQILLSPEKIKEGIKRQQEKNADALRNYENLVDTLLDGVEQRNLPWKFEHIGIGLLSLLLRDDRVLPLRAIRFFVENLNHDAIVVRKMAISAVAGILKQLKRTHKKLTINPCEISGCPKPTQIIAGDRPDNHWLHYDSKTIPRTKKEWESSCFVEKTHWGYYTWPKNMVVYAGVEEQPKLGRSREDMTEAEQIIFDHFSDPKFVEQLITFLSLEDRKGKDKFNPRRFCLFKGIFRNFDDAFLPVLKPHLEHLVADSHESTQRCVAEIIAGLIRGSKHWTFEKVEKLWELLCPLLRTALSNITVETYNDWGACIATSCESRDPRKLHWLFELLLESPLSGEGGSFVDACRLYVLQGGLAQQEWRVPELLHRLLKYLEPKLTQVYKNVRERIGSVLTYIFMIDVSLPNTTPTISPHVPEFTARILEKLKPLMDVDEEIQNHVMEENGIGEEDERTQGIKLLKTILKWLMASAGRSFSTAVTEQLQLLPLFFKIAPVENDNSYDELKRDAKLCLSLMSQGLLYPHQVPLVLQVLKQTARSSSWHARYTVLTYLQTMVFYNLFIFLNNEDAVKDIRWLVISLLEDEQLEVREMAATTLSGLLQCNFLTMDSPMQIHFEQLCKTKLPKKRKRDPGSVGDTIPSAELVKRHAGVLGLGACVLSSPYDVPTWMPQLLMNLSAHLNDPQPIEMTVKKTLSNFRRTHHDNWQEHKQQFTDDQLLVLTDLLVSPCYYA
Protocol: as §1

[3] = target: T2, cysteines in MDA-MB-231 and Ramos cells (Homo sapiens, UniProt P25205)
T2 sequence (P25205 1-808): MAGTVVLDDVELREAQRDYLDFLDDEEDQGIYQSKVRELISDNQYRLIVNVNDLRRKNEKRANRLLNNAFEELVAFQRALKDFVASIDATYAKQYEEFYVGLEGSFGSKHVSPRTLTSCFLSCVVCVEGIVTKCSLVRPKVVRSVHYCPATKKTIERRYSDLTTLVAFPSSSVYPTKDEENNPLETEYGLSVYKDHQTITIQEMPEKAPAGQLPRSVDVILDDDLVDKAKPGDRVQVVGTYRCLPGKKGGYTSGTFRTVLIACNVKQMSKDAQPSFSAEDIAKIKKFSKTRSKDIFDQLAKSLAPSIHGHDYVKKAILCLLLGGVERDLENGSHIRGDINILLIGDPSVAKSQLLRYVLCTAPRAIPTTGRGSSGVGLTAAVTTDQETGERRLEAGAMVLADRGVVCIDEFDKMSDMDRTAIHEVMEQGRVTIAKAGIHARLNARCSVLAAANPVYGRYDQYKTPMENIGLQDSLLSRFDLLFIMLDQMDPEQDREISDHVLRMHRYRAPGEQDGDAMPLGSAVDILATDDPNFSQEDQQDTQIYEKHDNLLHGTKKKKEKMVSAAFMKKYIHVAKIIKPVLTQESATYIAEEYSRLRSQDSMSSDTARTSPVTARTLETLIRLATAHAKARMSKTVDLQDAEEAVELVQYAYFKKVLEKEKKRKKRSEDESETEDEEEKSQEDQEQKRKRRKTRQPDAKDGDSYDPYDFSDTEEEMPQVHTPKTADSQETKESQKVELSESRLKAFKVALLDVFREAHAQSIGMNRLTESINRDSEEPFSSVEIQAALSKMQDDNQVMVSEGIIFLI
Protocol: as §1

[4] = target: T3, cysteines in MDA-MB-231 and Ramos cells (Homo sapiens, UniProt P57764)
T3 sequence (P57764 1-484): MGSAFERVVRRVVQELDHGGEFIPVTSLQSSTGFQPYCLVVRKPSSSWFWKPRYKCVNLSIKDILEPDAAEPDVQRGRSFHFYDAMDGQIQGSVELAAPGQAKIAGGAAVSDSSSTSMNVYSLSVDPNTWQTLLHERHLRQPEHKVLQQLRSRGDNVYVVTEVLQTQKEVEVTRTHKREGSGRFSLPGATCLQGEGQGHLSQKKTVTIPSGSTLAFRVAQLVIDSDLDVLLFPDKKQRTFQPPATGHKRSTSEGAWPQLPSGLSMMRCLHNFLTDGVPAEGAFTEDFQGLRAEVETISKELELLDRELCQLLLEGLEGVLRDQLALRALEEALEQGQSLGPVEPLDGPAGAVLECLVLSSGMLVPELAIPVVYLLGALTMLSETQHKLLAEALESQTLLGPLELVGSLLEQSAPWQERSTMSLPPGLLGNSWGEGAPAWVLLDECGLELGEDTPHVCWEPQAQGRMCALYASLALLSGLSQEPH
Protocol: as §1

[5] = target: T4, cysteines in MDA-MB-231 and Ramos cells (Homo sapiens, UniProt Q9HAV7)
T4 sequence (Q9HAV7 28-217): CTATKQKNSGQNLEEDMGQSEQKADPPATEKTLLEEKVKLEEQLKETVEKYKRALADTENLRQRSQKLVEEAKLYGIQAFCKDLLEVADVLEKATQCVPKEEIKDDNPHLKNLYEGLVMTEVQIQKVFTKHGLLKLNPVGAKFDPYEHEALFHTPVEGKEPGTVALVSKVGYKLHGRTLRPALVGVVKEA
Protocol: as §1

Row | Compound | isoTOP-ABPP ratio O14879_C343 ([1]; 200 μM, insitu, 231) | isoTOP-ABPP ratio Q14997_C1840 ([2]; 200 μM, insitu, 231) | isoTOP-ABPP ratio P25205_C119 ([3]; 200 μM, insitu, 231) | isoTOP-ABPP ratio P57764_C268 ([4]; 200 μM, insitu, 231) | isoTOP-ABPP ratio Q9HAV7_C124 ([5]; 200 μM, insitu, 231) | also measured
1 | COc1ccccc1OCCNC(=O)CCl [compound 28] | 0.7 | 0.9 | – | – | – | –
2 | Cc1ccc(C=C(C#N)C(=O)NCCN2CCOCC2)cc1 [compound 41] | 0.3 | 0.9 | 0.9 | 0.6 | 0.6 | –
3 | O=C(CCl)NC(=O)NC12CC3CC(CC(C3)C1)C2 [compound 12] | 3.5 | 20.0 | 1.0 | – | 1.1 | –
4 | O=C(CCl)NCCc1c[nH]c2ccccc12 [compound 13] | 1.0 | 0.9 | 1.1 | – | – | isoTOP-ABPP ratio P25205_C119 ([3]; 200 μM, insitu, ramos): 1.3; isoTOP-ABPP ratio P57764_C268 ([4]; 200 μM, insitu, ramos): 1.5; isoTOP-ABPP ratio Q14997_C1840 ([2]; 200 μM, insitu, ramos): 1.6
5 | O=C(CCl)N1CCC(Cc2ccccc2)CC1 [compound 9] | – | – | – | – | – | isoTOP-ABPP reactivity O14879_C343 IFIT3 ([1]; 200 μM, insitu, 231): 17.2; isoTOP-ABPP reactivity P25205_C119 MCM3 ([3]; 200 μM, insitu, 231): 1.9; isoTOP-ABPP reactivity Q9HAV7_C124 GRPEL1 ([5]; 200 μM, insitu, 231): 4.7
6 | COc1ccc(C2CC(c3cccs3)=NN2C(=O)CCl)cc1 (stereo not shown) [compound 4] | – | – | – | – | – | isoTOP-ABPP reactivity O14879_C343 IFIT3 ([1]; 100 μM in situ 231): 6.6; isoTOP-ABPP reactivity P25205_C119 MCM3 ([3]; 100 μM in situ 231): 4.3; isoTOP-ABPP reactivity P57764_C268 GSDMD ([4]; 100 μM in situ 231): 20.0; isoTOP-ABPP reactivity Q14997_C1840 PSME4 ([2]; 100 μM in situ 231): 20.0; isoTOP-ABPP reactivity Q9HAV7_C124 GRPEL1 ([5]; 100 μM in situ 231): 1.7
7 | O=C(CCl)NC12CC3CC(CC(C3)C1)C2 [compound 21] | 0.8 | 1.0 | 1.1 | 0.7 | 1.7 | –
8 | O=C(CCl)Nc1cccc2ncccc12 [compound 51] | 1.3 | 20.0 | 2.6 | 1.8 | – | –
9 | Cn1cc(S(=O)(=O)N2CCOCC2)cc1C(=O)NC(=O)CCl [compound 11] | – | – | – | – | – | isoTOP-ABPP ratio O14879_C343 ([1]; 100 μM in situ 231): 0.4; isoTOP-ABPP ratio P25205_C119 ([3]; 100 μM in situ 231): 0.7; isoTOP-ABPP ratio P57764_C268 ([4]; 100 μM in situ 231): 0.7; isoTOP-ABPP ratio Q9HAV7_C124 ([5]; 100 μM in situ 231): 0.9
10 | C=CC(=O)Nc1cc(F)c(N2CCN(C(=O)OC(C)(C)C)CC2)c(F)c1 [compound 38] | – | 20.0 | 0.9 | 1.8 | 1.0 | –
11 | CC1CCc2ccccc2N1C(=O)CCl (stereo not shown) [compound 45] | 4.0 | – | 6.2 | 20.0 | 2.1 | –
12 | COc1ccc2c(c1)CCCN2C(=O)CCl [compound 2] | – | – | – | – | – | isoTOP-ABPP reactivity O14879_C343 IFIT3 ([1]; 200 μM, insitu, 231): 7.6; isoTOP-ABPP reactivity P25205_C119 MCM3 ([3]; 200 μM, insitu, 231): 3.5; isoTOP-ABPP reactivity P57764_C268 GSDMD ([4]; 200 μM, insitu, 231): 20.0; isoTOP-ABPP reactivity Q14997_C1840 PSME4 ([2]; 200 μM, insitu, 231): 2.8; isoTOP-ABPP reactivity Q9HAV7_C124 GRPEL1 ([5]; 200 μM, insitu, 231): 3.2
13 | COc1cc2c(cc1OC)CN(C(=O)CCl)CC2 [compound 8] | – | – | – | – | – | isoTOP-ABPP reactivity O14879_C343 IFIT3 ([1]; 200 μM, insitu, 231): 2.1; isoTOP-ABPP reactivity P25205_C119 MCM3 ([3]; 200 μM, insitu, 231): 3.5; isoTOP-ABPP reactivity P57764_C268 GSDMD ([4]; 200 μM, insitu, 231): 8.4; isoTOP-ABPP reactivity Q14997_C1840 PSME4 ([2]; 200 μM, insitu, 231): 20.0; isoTOP-ABPP reactivity Q9HAV7_C124 GRPEL1 ([5]; 200 μM, insitu, 231): 2.2
14 | CC(C)CCOCCNC(=O)CCl [compound 27] | 0.4 | 20.0 | 1.0 | 0.6 | 0.6 | –
15 | O=C(CCl)N1CCN(S(=O)(=O)c2ccccc2F)CC1 [compound 10] | 4.9 | 20.0 | 2.3 | – | 1.0 | isoTOP-ABPP ratio P57764_C268 ([4]; 200 μM, insitu, ramos): 2.2
16 | O=C(CCl)N1CCN(CC(=O)N2CCOCC2)CC1 [compound 29] | – | – | – | – | – | isoTOP-ABPP ratio P25205_C119 ([3]; 200 μM, insitu, ramos): 1.3; isoTOP-ABPP ratio P57764_C268 ([4]; 200 μM, insitu, ramos): 1.1; isoTOP-ABPP ratio Q9HAV7_C124 ([5]; 200 μM, insitu, ramos): 1.0
17 | C=CC(=O)N(Cc1cccnc1)c1cc(C(F)(F)F)cc(C(F)(F)F)c1 [compound 31] | 0.9 | – | 0.5 | – | – | isoTOP-ABPP ratio P57764_C268 ([4]; 200 μM, insitu, ramos): 3.1; isoTOP-ABPP ratio Q14997_C1840 ([2]; 200 μM, insitu, ramos): 1.2
